# Assay results from patent publication US12123876B2, “Antibody binding to HEG1 and use of the antibody for detection and treatment of mesothelioma” (Kanagawa Prefectural Hospital Organization, priority 2016, dated 2024).
# “Also recorded” adds a separate entry of the source.
# Key:
# [1] = molecular target: recombinant human intelectin-1 (Homo sapiens, UniProt Q8WWA0, V109D); assay: Biacore inhibition of intelectin binding to diol structure; settings: inhibition of intelectin (0.5 μg/mL) binding
# Protocol: The binding between intelectin and the diol SEPHAROSE® (crosslinked, beaded-form of agarose) beads was inhibited in the presence of another compound with diol structure. An experiment was conducted in which binding of recombinant human intelectin-1 to a sensor chip including 3-Amino-1-propanediol fixed thereto via amino groups was measured by using a Biacore (GE Healthcare Bio-Sciences AB) in the presence of various compounds serially diluted, where intelectin was used with a final concentration of 0.5 μg/mL, and 10 mM HEPES buffer (pH 7.0) containing 1 mM CaCl2), 150 mM NaCl, and 0.03% TWEEN® 20 (polyethylene glycol sorbitan monolaurate, polyoxyethylenesorbitan monolaurate) was used as buffer for measurement, and the binding rate of intelectin was determined for each sample as the degree of binding of intelectin measured for a sample without addition of compound was defined as a binding rate of 100%.
# NCI-H2452 cells = assay: Cell proliferation after HEG1 knock-down, NCI-H2452; type: cell-based; settings: NCI-H2452, another mesothelioma cell line
# HEK-293T cells = assay: Cell proliferation after HEG1 siRNA, HEK-293T; type: cell-based; settings: which do not express HEG1
# SKM9-2 antibody = assay: Western blot reactivity of human HEG1 fragments expressed in ACC-MESO-1 with SKM9-2 antibody; type: binding, mouse; settings: for Binding to SKM9-2 antibody (positive/negative): Western blot of cell lysate
# Protocol: In this Example, the mesothelioma cell line ACC-MESO-1 was allowed to express a human HEG1 fragment with the endogenous HEG1 of ACC-MESO-1 knocked down, and the reactivity with the SKM9-2 antibody was examined. Subsequently, the reactivity with the antibody was tested for the epitope region through alanine scanning, and key amino acids for binding to the antibody were determined.
# Gene transfer was performed with HEG1 siRNA (H9106) (SEQ ID NOs: 40, 41) and human HEG1 for the mesothelioma cell line ACC-MESO-1, and the reactivity of the SKM9-2 was examined through Western blot analysis. A full length protein (HEG1 full length) or a fragment (HEG1 3 kb, HEG1 2 kb, or HEG1 1 kb) of the human HEG1 was used. The full length human HEG1 protein, a protein having the amino acid sequence set forth in SEQ ID NO: 35, was obtained through inserting a base sequence set forth in SEQ ID NO: 34 into pFLAG-CMV1 (Sigma-Aldrich Japan K.K.) to obtain a plasmid, transforming the plasmid, and allowing the mesothelioma cell line to express the plasmid. Fragment HEG1 3 kb was obtained through inserting a fragment corresponding to a sequence from position 285, leucine, to position 1387, phenylalanine, of SEQ ID NO: 35 into pFLAG-CMV1 (Sigma-Aldrich Japan K.K.) in an in-frame manner, and allowing the mesothelioma cell line to express the resultant. HEG1 2 kb and HEG1 1 kb were obtained through allowing the mesothelioma cell line to express products similarly obtained from a fragment corresponding to a sequence from position 677, leucine, to position 1387, phenylalanine, of SEQ ID NO: 35 and a fragment corresponding to a sequence from position 992, valine, to position 1387, phenylalanine, of SEQ ID NO: 35, respectively. Each cell lysate was analyzed through Western blot with the SKM9-2 antibody.
# Further, the region in exon 7 of HEG1 was analyzed in detail. […]
# Chain of recombinant human intelectin-1 (Q8WWA0 19-298 V109D): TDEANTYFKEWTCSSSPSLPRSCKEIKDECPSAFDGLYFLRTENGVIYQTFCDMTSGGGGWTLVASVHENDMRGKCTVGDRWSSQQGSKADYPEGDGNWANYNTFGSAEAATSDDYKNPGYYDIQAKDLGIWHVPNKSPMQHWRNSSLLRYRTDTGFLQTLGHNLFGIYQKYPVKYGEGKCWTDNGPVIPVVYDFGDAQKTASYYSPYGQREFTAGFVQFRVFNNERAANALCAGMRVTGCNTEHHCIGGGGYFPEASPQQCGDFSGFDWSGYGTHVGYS
IC50 [1],Compound,other results
–,"H2674: siRNA for human HEG1; sense SEQ ID NO: 25 CCUAUAGCCGUACAGACUACA, antisense SEQ ID NO: 26; called HEG1 siRNA in b178 (antisense UAGUCUGUACGGCUAUAGGGC; listed as RNA, chemistry not given here)",Cell proliferation (NCI-H2452 cells): suppressed cell proliferation; Cell proliferation (HEK-293T cells): not affected
≤ 1000 µM,"CCC(O)CO (stereo not shown) [1,2-Butanediol]",–
≤ 1000 µM,OCC(O)CO [Glycerol],–
800 µM,CCCC(=O)OCC(O)CO (stereo not shown) [Monobutyrin],–
≤ 1000 µM,O=C1O[C@H]([C@@H](O)CO)C(O)=C1O [L-Ascorbic acid],–
–,7.6231: SEQ ID NO: 49 (SKSPSLVSLPTE) bonded to SLURPgpi (GGSKSPSLVSLPTEGG; 7.6231 - SLURPgpi (7.6231)),"Binding to SKM9-2 antibody (positive/negative) (SKM9-2 antibody): positive; Binding to SKM9-2 antibody (positive/negative) (SKM9-2 antibody; listed as fragment 7.6231): positive signal; Reaction with SKM9-2 antibody after neuraminidase treatment (SKM9-2 antibody; lysate treated with neuraminidase, listed as fragment 7.6231): disappeared; also recorded: does not react"
≤ 1000 µM,O=C[C@H](O)[C@H](O)[C@H](O)CO [D-Ribose],–
≤ 1000 µM,O=C[C@@H](O)[C@@H](O)[C@@H](O)CO [L-Ribose],–

Compound,IC50 [1],other results
"C[C@@H](O)CO [(R)-1,2-Propanediol]",1000 µM,–
"CC(O)CO (stereo not shown) [1,2-Propanediol]",900 µM,–
